Reference: patent publication US7476672B2, “Acetylenic compounds useful in treating inflammatory disorders” (Janssen Pharmaceutica N.V., priority 2002, dated 2009)
Read-outs that look alike come from different tables or passages of the source.

Assays:
[1] = tested on: reactive oxygen species (ROS); details: human patients with rheumatoid arthritis and osteoarthritis, pharmacological doses; cited from earlier work
[2] = tested on: potassium peroxochromate arthritis; details: mice, cited from earlier work
NADPH-oxidase = molecular target: T1, NADPH-oxidase (Homo sapiens, UniProt P04839); experiment: Oxidase Inhibition Assay (PMA-stimulated superoxide-mediated reduction of Cytochrome c, whole cells); type: cell-based
T1 construct: endogenous in cells; host or cells: human neutrophils isolated from buffy coat
T1 sequence (P04839 1-570): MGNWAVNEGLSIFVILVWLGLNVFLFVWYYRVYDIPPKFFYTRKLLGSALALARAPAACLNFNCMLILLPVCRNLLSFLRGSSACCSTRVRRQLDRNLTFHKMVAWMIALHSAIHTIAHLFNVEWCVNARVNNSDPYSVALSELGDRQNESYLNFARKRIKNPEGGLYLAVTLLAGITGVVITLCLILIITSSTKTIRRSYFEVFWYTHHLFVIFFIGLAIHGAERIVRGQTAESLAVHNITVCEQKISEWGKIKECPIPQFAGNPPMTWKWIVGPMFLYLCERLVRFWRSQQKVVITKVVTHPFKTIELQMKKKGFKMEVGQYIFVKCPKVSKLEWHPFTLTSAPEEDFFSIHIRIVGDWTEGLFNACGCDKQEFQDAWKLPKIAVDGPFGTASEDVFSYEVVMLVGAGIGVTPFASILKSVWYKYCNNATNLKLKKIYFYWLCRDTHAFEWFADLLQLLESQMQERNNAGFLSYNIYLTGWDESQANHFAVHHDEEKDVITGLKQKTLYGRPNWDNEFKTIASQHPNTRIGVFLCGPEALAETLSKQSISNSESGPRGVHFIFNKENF
Procedure: Whole cells (human neutrophils) are incubated with a pro-inflammatory agonist phorbol myristate acetate (PMA) in the presence or absence of test compound to measure the superoxide-mediated reduction of Cytochrome c at 550 nm. Inhibition of the oxidase is determined by a decreased absorbance at 550 nm, in response to test compound, relative to the absorbance seen with a vehicle control.
The buffy coat from one unit of blood is split evenly into four 50 mL tubes. To each tube 30 mL 3% Dextran (in 0.9% NaCl) is added and the tubes are inverted to mix. Tubes are allowed to sit undisturbed for 25 minutes. The resulting supernatant is recovered into four fresh tubes and centrifuged for 10 minutes at 600×g, 4° C. The supernatant is discarded and pellets are resuspended in 35 mL 0.9% saline. 10 mL Ficoll-Paque PLUS (Pharmacia Biotech AB) is layered beneath the cell suspension and centrifuged at 600×g for 40 minutes at room temperature. The supernatant is again discarded and tubes are tapped to loosen the resulting pellets. 20 mL 0.2% ice cold saline is added for 30 seconds followed by 20 mL 1.6% ice cold saline to lyse the remaining erythrocytes in the pellets. The pellets are centrifuged for 10 minutes at 600×g, 4° C., and the supernatant is discarded. The neutrophil pellets are resuspended in HBSS-glucose buffer (1 mg/mL), adding 2.5 mL to each tube for a total volume of 10 mL. The cell suspension is then counted on a hemocytometer.
The cell suspension is diluted to a concentration of 5×10^6/mL in HBSS-glucose and treated with 1 μg/mL Cytochalasin B (5 mg/mL DMSO) for 10 minutes at 37° C. in a shaking water bath. Cells are diluted to 6×10^5 cells/mL in 92 μM Cytochrome C for a final concentration of 5×10^4 cells/well.
The NADPH-oxidase assay is run on a Biomek 2000 workstation. The workstation adds 2.5 μL compound per well from source plates plus 12.5 μL per well 4 μM PMA (agonist). This volume is brought up to 100 μL total per well in the assay plates upon the addition of the prepared cells (85 μL). The final concentration of drug is 25 μM and PMA is 0.5 μM under these conditions.
The QC curve is a dose-response curve (from about 31.25 nM to about 4000 nM) for competitive binding against a known oxidase inhibitor such as DPI (diphenylene iodonium chloride). The format used for each compound tested is as follows:
The plates are incubated for 1 hour at 37° C. without CO2. The plates are then incubated at room temperature for 30 minutes and the absorbance is read at 550 nm.

CN1C(C(=O)Nc2ccccn2)=C(O)c2ccccc2S1(=O)=O [Piroxicam]
reduction of levels of ROS [1]: 25%

c1ccc2c(c1)[I+]c1ccccc1-2 [DPI, diphenylene iodoniumchloride]
inhibition of the arthritis ([2]; 10 mmol/kg): Complete inhibition
inhibition of the arthritis ([2]; daily doses of 2.8 μmol/kg): 50%
inhibition at 10 µM (NADPH-oxidase; QC wells G-H, 2.5 μL of 10 μM DPI, at 250 nm (so in the source), agonist added): ~70%

Cc1cc(C#Cc2ccc(Cl)cc2)ccc1OCCNCc1ccc(CNCCC2CCCN2C)cc1 (stereo not drawn) [Compound 13, N^1-[2-[4-[(4-chlorophenyl)ethynyl]-2-methylphenoxy]ethyl]-N^4-[2-(1-methyl-2-pyrrolidinyl)ethyl]-1,4-benzenedimethanamine]
melting point: 251 to 254 °C
IC50 (NADPH-oxidase; human neutrophils, PMA 0.5 μM, absorbance at 550 nm): 1000 nM
